Laboratory results taken from BigSolDB 2.1.

NS(=O)(=O)Cc1noc2ccccc12
solubility (mole fraction)
Conditions	273.15 K	278.15 K	283.15 K	288.15 K	293.15 K	298.15 K	303.15 K	308.15 K	313.15 K
in ethyl acetate	–	0.00558	0.00625	0.00704	0.00793	0.00882	0.0098	0.0108	0.0118
in isopropanol	0.000617	0.000791	0.000996	0.00122	0.00146	0.00173	0.00207	0.00241	0.00274
in methanol	0.00253	0.00274	0.00298	0.00326	0.00353	0.00387	0.00421	0.0046	0.005
in n-butanol	0.00017	0.00026	0.000383	0.000528	0.000721	0.00095	0.00122	0.00148	0.00178
in n-propanol	0.00041	0.000546	0.000697	0.000862	0.00105	0.00126	0.00149	0.00175	0.002
in toluene	3.56e-05	5.05e-05	6.73e-05	8.69e-05	0.000106	0.000131	0.00016	0.000193	0.00023
